The values below come from article PMC8869333, “Alpha-Glucosidase and Alpha-Amylase Inhibitory Activities, Molecular Docking, and Antioxidant Capacities of Plectranthus ecklonii Constituents” (Antioxidants, 2022).

The nature of assay [1]: Ferric-ion reducing antioxidant power (FRAP) assay. To be noted: ascorbic acid equivalents; stock solution 1 mg/mL. As to the method:
The FRAP assay was carried out in accordance with the method described previously. In a 96-well plate, 10 μL of the stock solution (1 mg/mL w/v) of the isolated compounds (1–3) was mixed with 300 μL of FRAP reagent. The FRAP reagent was prepared by mixing (10:1:1, v/v/v) of acetate buffer (300 mM, pH 3.6), tripyridyl triazine (TPTZ) (10 mM in 40 mM HCl), and FeCl3.6H2O (20 mM). Incubation commenced at room temperature for 30 min, and the plate was read at a wavelength of 593 nm in a Multiskan spectrum plate reader (Thermo Fisher Scientific). L-Ascorbic (Sigma-Aldrich, Cape Town, South Africa) was used as a standard, with concentrations varying between 0 and 1000 μM. Further dilutions were carried out with the samples that were highly concentrated, and such dilution factors were recorded and used for calculations of the affected samples. The results are expressed as μM ascorbic acid equivalents per milligram dry weight (μM AAE/g) of the test samples.

The target in another assay is T1, alpha-glucosidase (Saccharomyces cerevisiae, UniProt P53341).
T1 construct: purchased Sigma-Aldrich
Kind of assay: Alpha-glucosidase inhibitory activity (pNPG substrate, absorbance 405 nm). The assay is classed as biochemical. As to the method:
The organic solvents used in this study were supplied by Merck, Cape Town, South Africa. The NMR spectra were carried out on an Avance 400 MHz spectrometer (Bruker, Rheinstetten, Germany) using deuterated chloroform. Preparative HPLC was utilized for the purification of compounds using HPLC-grade methanol and distilled water.
The reaction was stopped by adding 50 μL of sodium carbonate Na2CO3 (0.1 M). […] Each experiment was repeated three times.

Assay [2] is described as follows: Trolox equivalent absorbance capacity (TEAC) assay. To be noted: Trolox equivalents; stock solution 1 mg/mL. The method, then: The TEAC assay was carried out in accordance with the method described previously. The stock solutions, which contained 7 mM of ABTS and 140 mM of K2S2O8, were prepared and kept at −2 °C. The working solution was then prepared by adding 88 μL of K2S2O8 solution to 5 mL of ABTS solution. The two solutions were mixed and allowed to react for 24 h at room temperature in the dark. Trolox was used as a standard, with concentrations ranging between 0 and 500 μM. After 24 h, the ABTS mix solution was diluted with ethanol to read a start-up absorbance (control) of approximately 2.0 (±0.1). The stock solution (1 mg/mL) of a methanol extract and purified compounds (25 μL) were allowed to react with 300 μL of ABTS in the dark at room temperature for 30 min. The absorbance was read at 734 nm at 25 °C in the plate reader. The results are expressed as μM Trolox equivalents per milligram dry weight (μM/TE/g) of the test samples.

Assay [3] is described as follows: Oxygen radical absorbance capacity (ORAC) assay. To be noted: Trolox equivalents; stock solution 1 mg/mL. The method, then:
ORAC assay was conducted according to the previous method with slight modifications. The method measured the antioxidant scavenging capacity of thermal decomposition generated by peroxyl radical of 2,2-azobis (2-amino-propane) dihydrochloride (AAPH) as peroxyradical (ORACROO^.) generator. The loss of fluorescence of fluorescein (probe) was an indication of the extent of its oxidation through reaction with the peroxyl radical. The protective effect of an antioxidant was measured by assessing the fluorescence area under the curve (AUC) plot relative to that of blank in which no antioxidant was present. The analyzer was programmed to record the fluorescence of fluorescein every 2 min after AAPH was added. The fluorescein solution and sample were added in the wells of an illuminated 96-well plate, and 12 μL of each sample in a stock solution of 1 mg/mL was combined with 138 μL of a fluorescein working solution, followed by the addition of 50 μL of 150 mg of AAPH prepared in situ in 6 mL phosphate buffer. Absorbance was measured with a Fluoroskan spectrum plate reader with the excitation wavelength set as 485 nm and the emission wavelength at 530 nm. A calibration curve was used, using a Trolox stock solution of concentration in the range of 83–417 μM (R^2 = 0.9514). The ORAC values were calculated using a regression equation (Y = a + bX + Cx^2) between Trolox concentration (Y in μM) and the net area under the fluorescence decay curve (X). ORAC values are expressed as μMTE/mg of a test sample. Samples without perfect curve were further diluted, and the dilution factors were used for the calculation of such samples.

The conditions of assay [4]: cited from earlier work.

For orientation: IC50 means the point on the concentration scale where inhibition reaches its midpoint. A word on the EC50: it is the midpoint of the concentration-response curve.

T1 sequence (P53341 whole entry): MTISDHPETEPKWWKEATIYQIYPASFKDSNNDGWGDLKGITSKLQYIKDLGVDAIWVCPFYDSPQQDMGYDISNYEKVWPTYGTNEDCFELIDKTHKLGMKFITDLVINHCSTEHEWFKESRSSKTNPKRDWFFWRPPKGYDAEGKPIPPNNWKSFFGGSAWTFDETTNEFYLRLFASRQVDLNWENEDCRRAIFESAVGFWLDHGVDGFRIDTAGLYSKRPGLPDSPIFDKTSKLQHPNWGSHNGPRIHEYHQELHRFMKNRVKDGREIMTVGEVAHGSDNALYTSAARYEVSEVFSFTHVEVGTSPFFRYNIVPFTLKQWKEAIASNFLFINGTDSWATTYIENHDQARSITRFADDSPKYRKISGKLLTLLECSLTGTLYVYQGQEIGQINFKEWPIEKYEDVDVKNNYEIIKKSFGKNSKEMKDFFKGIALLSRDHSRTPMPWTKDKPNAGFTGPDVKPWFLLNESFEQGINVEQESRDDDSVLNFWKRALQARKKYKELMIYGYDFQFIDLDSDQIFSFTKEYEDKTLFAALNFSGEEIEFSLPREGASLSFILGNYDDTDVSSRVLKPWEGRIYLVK

For `COc1cc(C(=O)OC2CC(C)(C)C3=CC=C4C=C(C(C)C)C(=O)C(O)=C4C3(C)C2)ccc1O` (centres unmarked) [Compound 3, parvifloron G], the FRAP in assay [1] is given as 1455.4 ± 2.0 µM AAE/g. On alpha-glucosidase, the IC50 is 88.9 µM. In addition, in assay [2], the TEAC came to 3526.1 ± 0.6 µM TE/g.
On to `O=C(O[C@@H]1Cc2c(O)cc(O)cc2O[C@@H]1c1cc(O)c(O)c(O)c1)c1cc(O)c(O)c(O)c1` [EGCG, epigallocatechin gallate, reference compound], for which the ORAC in assay [3] is listed as 3976.82 ± 3.8 µM TE/g. Also, the FRAP in assay [1] is on record as 7524.1 ± 4.9 µM AAE/g. Also, in assay [2], the TEAC amounted to 4146.4 ± 19.8 µM TE/g.
As to parvifloron D [Compound 1], the ORAC in assay [3] amounted to 3942.9 ± 7.1 µM TE/g. Further, the FRAP in assay [1] stood at 1043.9 ± 2.6 µM AAE/g. Besides, the TEAC in assay [2] amounted to 470.3 ± 2.2 µM TE/g. For the same compound, in assay [4] (read-out: DPPH radical scavenging IC50), the IC50 was 1300 ± 100 µM.
parvifloron F [Compound 2]: in assay [3], the ORAC is given as 1726.1 ± 2.6 µM TE/g. Further, the FRAP in assay [1] stood at 1155.5 ± 2.3 µM AAE/g. For the same compound, the TEAC in assay [2] is 1069.3 ± 2.4 µM TE/g. Also, in assay [4] (read-out: DPPH radical scavenging EC50), the EC50 is 131 µM.
